Our source for the IC50 values is patent US12398154B2, “Azaquinazoline pan-KRas inhibitors” (Mirati Therapeutics, Inc., priority 2020, dated 2025).

As a reminder, the IC50 is the point on the concentration scale where inhibition reaches its midpoint.

The target of assay [1] is KRas G12D (Homo sapiens, UniProt P01116, G12D). As to the kind of experiment: biochemical.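 Note: TR-FRET displacement binding assay on KRas, read after a one-hour incubation at room temperature, IC50 fitted from percent-of-control values.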
Procedure: (§1) The ability of a compound to bind to KRas was measured using a TR-FRET displacement assay. […] After a 60-minute incubation at room temperature, the reaction was measured using a BMG LABTECH CLARIO star Plus via TR-FRET. […] The POC values were fit to a 4-parameter IC50 equation and the IC50 value reported.
The target in assay [2] is KRas G12V (Homo sapiens, UniProt P01116, G12V). In words: biochemical.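 Note: KRas binding measured by TR-FRET displacement at room temperature, IC50 fitted from percent of control values.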
Procedure: as §1
For assay [3], the target named is KRas G12R (Homo sapiens, UniProt P01116, G12R). As to the kind of experiment: biochemical.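 Note: TR-FRET displacement assay of compound binding to KRas, read after one hour at room temperature, potency from a four-parameter fit of percent-of-control values.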
Procedure: as §1
The subject of assay [4] is pERK in MKN1 cells. As to the kind of experiment: Inhibition of KRas phosphorylation of ERK (Cisbio HTRF pERK assay). To be noted: Homo sapiens, MKN-1, 3 h, read-out: Inhibition (HTRF IC50) of KRas-mediated Phosphorylation of ERK, MKN1. A general note: Time-resolved FRET reads energy transfer from a long-lived donor to a nearby acceptor.
Procedure: To harvest cells from flask using 0.05% Trypsin/EDTA solution. Add 10 mL of media to stop trypsinizing. Pipette the cells into a conical bottom 50 mL centrifuge tube and centrifuge 5 min×1000 rpm. • 2. Re-suspend the cell pellet in media, take a cell count, and then adjust the cell density using fresh media. • 3. Seed 6,000 cells into cell culture plate with 50 μL media. […] Incubate cell plate overnight in a 37° C., 5% CO2 incubator. • Compound titrations • 1. Use Tecan to complete the compound addition. Compounds start from 10 uM top, 3-fold dilution, and 10 doses. The final DMSO concentration is 0.8%. Dispensed 0.2 uM Trametinib as Min control. • 2. Incubate cell plate for 3 hrs in the incubator. • Detection with cisbio pERK HTRF kit • 1. […] At the end of the compound treatment, flick-off the media. • 3. Add 35 μL of lysis buffer per well using a Multidrop Combi. Then place on a plate agitator shaking at 300 rpm at 4° C. for 40 mins. • 4. Make up the HTRF antibody buffer. For each assay plate, mix 50 μL of d2-conjugate antibody with 950 μL of detection buffer. Similarly, mix 50 μL of Cryptate antibody with 950 μL of detection buffer. Then mix the two diluted antibodies together. • 5. Dispense 3.4 μL the antibody buffer to wells of an empty assay plate. Seal the plate and centrifuge plate 30 sec×1000 rpm. • 6. At the end of the 4° C. lysis, centrifuge the lysate plates 3 mins×1500 rpm. • 7. Use the Bravo to transfer 13.6 μL of lysate from cell culture plate to assay plate.
Then incubate assay plate for 2 hrs at room temperature. […] At the end of incubation, read plate on the Envision after centrifuging plate 30 sec× • 1000 rpm.
Assay [5] concerns pERK in PSN1 cells. Described as above. To be noted: Homo sapiens, PSN1, 3 h, read-out: Inhibition (HTRF IC50) of KRas-mediated Phosphorylation of ERK, PSN1.
Assay [6] concerns pERK in ASPC1 cells. The assay is described as above. To be noted: Homo sapiens, ASPC1, read-out: Inhibition (HTRF IC50) of KRas-mediated Phosphorylation of ERK, AsPC-1.
Assay [7] concerns pERK in H727 cells. The description is as above. To be noted: Homo sapiens, NCI-H727, read-out: Inhibition (HTRF IC50) of KRas-mediated Phosphorylation of ERK, H727.
Assay [8] concerns the target KRas G12C (Homo sapiens, UniProt P01116, G12C). In words: biochemical.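 Note: binding to KRas assessed by TR-FRET displacement after one hour incubation at room temperature, potency fitted from percent-of-control values.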
Procedure: as §1

KRas G12D, sequence (P01116 1-169 isoform P01116-2 G12D): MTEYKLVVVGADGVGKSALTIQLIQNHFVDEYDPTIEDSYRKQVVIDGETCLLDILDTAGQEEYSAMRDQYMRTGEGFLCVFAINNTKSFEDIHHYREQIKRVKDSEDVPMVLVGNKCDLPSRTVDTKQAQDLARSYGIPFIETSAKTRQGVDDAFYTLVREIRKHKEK
KRas G12R, sequence (P01116 1-169 isoform P01116-2 G12R): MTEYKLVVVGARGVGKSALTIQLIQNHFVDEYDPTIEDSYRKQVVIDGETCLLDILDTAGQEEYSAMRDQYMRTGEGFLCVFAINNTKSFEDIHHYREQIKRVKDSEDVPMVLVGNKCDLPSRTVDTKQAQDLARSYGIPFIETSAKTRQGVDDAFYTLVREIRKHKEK
KRas G12V, sequence (P01116 1-169 isoform P01116-2 G12V): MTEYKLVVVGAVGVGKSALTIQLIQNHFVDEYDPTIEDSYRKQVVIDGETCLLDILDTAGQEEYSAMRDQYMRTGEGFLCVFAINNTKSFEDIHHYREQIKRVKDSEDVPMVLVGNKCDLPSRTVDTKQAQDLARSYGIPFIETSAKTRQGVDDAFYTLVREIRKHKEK
KRas G12C, sequence (P01116 1-169 isoform P01116-2 G12C): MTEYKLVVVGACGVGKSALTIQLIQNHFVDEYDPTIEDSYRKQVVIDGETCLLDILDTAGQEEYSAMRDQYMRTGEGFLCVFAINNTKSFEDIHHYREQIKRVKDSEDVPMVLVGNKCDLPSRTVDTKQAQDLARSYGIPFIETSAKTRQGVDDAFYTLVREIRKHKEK

As to `CCc1c(F)ccc2cc(O)cc(-c3ncc4c(N5CCCC6(C5)C[S+]([O-])C6)nc(OC[C@@]56CCCN5C[C@H](F)C6)nc4c3F)c12` (stereo partly drawn) [Example 484, 6-(7-(8-ethyl-7-fluoro-3-hydroxynaphthalen-1-yl)-8-fluoro-2-(((2R,7aS)-2-fluorohexahydro-1H-pyrrolizin-7a-yl)methoxy)pyrido[4,3-d]pyrimidin-4-yl)-2-thia-6-azaspiro[3.5]nonane 2-oxide], the IC50 in assay [1] is 23 nM; in assay [2], 28 nM; in assay [3] it was 48 nM; in assay [4], 1060 nM; in assay [5], no less than 10000 nM; in assay [6], 4860 nM. In assay [7], the IC50 amounted to 3030 nM.
As for `CCc1c(F)ccc2cc(O)cc(-c3ncc4c(N5CCOCC6(CCOCC6)C5)nc(OC[C@@]56CCCN5C[C@H](F)C6)nc4c3F)c12` [Example 500, 5-ethyl-6-fluoro-4-(8-fluoro-2-(((2R,7aS)-2-fluorohexahydro-1H-pyrrolizin-7a-yl)methoxy)-4-(3,8-dioxa-11-azaspiro[5.6]dodecan-11-yl)pyrido[4,3-d]pyrimidin-7-yl)naphthalen-2-ol], the IC50 was 235 nM in assay [1]; 104 nM in assay [2]; 103 nM in assay [3]; 239 nM in assay [4]; no less than 10000 nM in assay [5]; 1100 nM in assay [6]. In addition, the IC50 in assay [7] came out at 1900 nM.
With `CCc1c(F)ccc2cc(O)cc(-c3ncc4c(N5CCCC6(CC(F)C6)C5)nc(OC[C@@]56CCCN5C[C@H](F)C6)nc4c3F)c12` (stereo partly drawn) [Example 344, 5-ethyl-6-fluoro-4-(8-fluoro-4-(2-fluoro-6-azaspiro[3.5]nonan-6-yl)-2-(((2R,7aS)-2-fluorohexahydro-1H-pyrrolizin-7a-yl)methoxy)pyrido[4,3-d]pyrimidin-7-yl)naphthalen-2-ol], the IC50 is 138 nM in assay [1]; 83 nM in assay [2]; 94 nM in assay [3]; 796 nM in assay [4]; no less than 10000 nM in assay [5]; 3410 nM in assay [6]. The IC50 in assay [7] came to 4820 nM.
Turning to `CCc1c(F)ccc2cc(O)cc(-c3ncc4c(NCc5cc(C(N)=O)nn5C)nc(OC[C@@]56CCCN5C[C@H](F)C6)nc4c3F)c12` [Example 385, 5-(((7-(8-ethyl-7-fluoro-3-hydroxynaphthalen-1-yl)-8-fluoro-2-(((2R,7aS)-2-fluorohexahydro-1H-pyrrolizin-7a-yl)methoxy)pyrido[4,3-d]pyrimidin-4-yl)amino)methyl)-1-methyl-1H-pyrazole-3-carboxamide], the IC50 in assay [1] is no more than 2 nM; in assay [2] it was no more than 2 nM; in assay [3], no more than 2 nM; in assay [4] it was 421 nM; in assay [5], no less than 10000 nM; in assay [6], no less than 10000 nM. Also, the IC50 in assay [7] is 4650 nM.
As to `C#Cc1c(F)ccc2cc(O)cc(-c3ncc4c(N5CCCC6(CNC(=O)N6)C5)nc(OC[C@@]56CCCN5C[C@H](F)C6)nc4c3F)c12` (stereo partly drawn) [Example 395, 7-(7-(8-ethynyl-7-fluoro-3-hydroxynaphthalen-1-yl)-8-fluoro-2-(((2R,7aS)-2-fluorohexahydro-1H-pyrrolizin-7a-yl)methoxy)pyrido[4,3-d]pyrimidin-4-yl)-1,3,7-triazaspiro[4.5]decan-2-one], the IC50 is no more than 2 nM in assay [1]; no more than 2 nM in assay [2]; no more than 2 nM in assay [3]; 299 nM in assay [4]; no less than 10000 nM in assay [5]; 477 nM in assay [6]. Besides, the IC50 in assay [7] is 1380 nM.
Regarding `Nc1cc2n(n1)CCCN(c1nc(OC[C@@]34CCCN3C[C@H](F)C4)nc3c(F)c(-c4cc(O)cc5ccc(F)c(Br)c45)ncc13)C2` [Example 408, 4-(4-(2-amino-7,8-dihydro-4H-pyrazolo[1,5-a][1,4]diazepin-5(6H)-yl)-8-fluoro-2-(((2R,7aS)-2-fluorohexahydro-1H-pyrrolizin-7a-yl)methoxy)pyrido[4,3-d]pyrimidin-7-yl)-5-bromo-6-fluoronaphthalen-2-ol], the IC50 was no more than 2 nM in assay [1]; no more than 2 nM in assay [2]; no more than 2 nM in assay [3]; 351 nM in assay [4]; no less than 10000 nM in assay [5]; 721 nM in assay [6]. Moreover, in assay [7], the IC50 stood at 570 nM.
In the case of `CCc1c(F)ccc2cc(O)cc(-c3ncc4c(NCC5CNC5=O)nc(OC[C@@]56CCCN5C[C@H](F)C6)nc4c3F)c12` (stereo partly drawn) [Example 485, 3-(((7-(8-ethyl-7-fluoro-3-hydroxynaphthalen-1-yl)-8-fluoro-2-(((2R,7aS)-2-fluorotetrahydro-1H-pyrrolizin-7a(5H)-yl)methoxy)pyrido[4,3-d]pyrimidin-4-yl)amino)methyl)azetidin-2-one], the IC50 in assay [1] is 9 nM; in assay [2] it was no more than 2 nM; in assay [3] it was 3 nM; in assay [6], 6620 nM; in assay [7], 1220 nM.
The matching figures for `Cc1cc2[nH]ncc2c(-c2ncc3c(N4CCCC5(CNS(=O)(=O)N5)C4)nc(OCC45CCCN4CCC5)nc3c2F)c1C` (stereo not shown) [Example 521, 7-(7-(5,6-dimethyl-1H-indazol-4-yl)-8-fluoro-2-((hexahydro-1H-pyrrolizin-7a-yl)methoxy)pyrido[4,3-d]pyrimidin-4-yl)-2-thia-1,3,7-triazaspiro[4.5]decane 2,2-dioxide]: 4 nM, no more than 2 nM, 3 nM, no less than 10000 nM and no less than 10000 nM.
As to `Cc1cc2[nH]ncc2c(-c2ncc3c(N4CCOCC(C)(O)C4)nc(OCC45CCCN4CCC5)nc3c2F)c1C` (stereo not shown) [Example 522, 4-(7-(5,6-dimethyl-1H-indazol-4-yl)-8-fluoro-2-((hexahydro-1H-pyrrolizin-7a-yl)methoxy)pyrido[4,3-d]pyrimidin-4-yl)-6-methyl-1,4-oxazepan-6-ol], the IC50 was 292 nM in assay [1]; 390 nM in assay [2]; 759 nM in assay [3]; no less than 10000 nM in assay [6]; no less than 10000 nM in assay [7].
`CCc1c(F)ccc2cc(O)cc(-c3ncc4c(N(C)CC5CC(=O)N5)nc(OC[C@@]56CCCN5C[C@H](F)C6)nc4c3F)c12` (stereo partly shown) [Example 384]: the half-inhibitory concentration (IC50) in assay [1] is 38 nM; in assay [2], 12 nM; in assay [3], 32 nM; in assay [6], no less than 10000 nM; in assay [7], no less than 10000 nM.
Take `Cc1cc2[nH]ncc2c(-c2ncc3c(N4CCCC(C)(O)C4)nc(OCC45CCCN4CCC5)nc3c2F)c1C` (stereo not shown) [Example 25, 1-(7-(5,6-dimethyl-1H-indazol-4-yl)-8-fluoro-2-((hexahydro-1H-pyrrolizin-7a-yl)methoxy)pyrido[4,3-d]pyrimidin-4-yl)-3-methylpiperidin-3-ol]: the 50% inhibitory concentration (IC50) in assay [1] was 433 nM; in assay [2], 633 nM; in assay [3], 1310 nM; in assay [8], 679 nM; in assay [6], no less than 10000 nM; in assay [7] it was no less than 10000 nM.
Take `CCc1c(F)ccc2cc(O)cc(-c3ncc4c(N5C[C@H]6C[C@@H](C5)[C@H](CO)[C@H]6O)nc(OC[C@@]56CCCN5C[C@H](F)C6)nc4c3F)c12` [Example 486, (1 R,5R,6S,7R)-3-(7-(8-ethyl-7-fluoro-3-hydroxynaphthalen-1-yl)-8-fluoro-2-(((2R,7aS)-2-fluorohexahydro-1H-pyrrolizin-7a-yl)methoxy)pyrido[4,3-d]pyrimidin-4-yl)-7-(hydroxymethyl)-3-azabicyclo[3.2.1]octan-6-ol]: the IC50 in assay [1] is 336 nM; in assay [2] it was 170 nM; in assay [3], 186 nM; in assay [6] it was no less than 10000 nM; in assay [7] it was no less than 10000 nM.
Regarding `CCc1c(F)ccc2cc(O)cc(-c3ncc4c(N5C[C@H](CO)OC[C@](C)(O)C5)nc(OC[C@@]56CCCN5C[C@H](F)C6)nc4c3F)c12` [Example 497, (2R,6R)-4-(7-(8-ethyl-7-fluoro-3-hydroxynaphthalen-1-yl)-8-fluoro-2-(((2R,7aS)-2-fluorohexahydro-1H-pyrrolizin-7a-yl)methoxy)pyrido[4,3-d]pyrimidin-4-yl)-2-(hydroxymethyl)-6-methyl-1,4-oxazepan-6-ol], the IC50 is 43 nM in assay [4], no less than 10000 nM in assay [5], 987 nM in assay [6] and 503 nM in assay [7].
With `CCc1c(F)ccc2cc(O)cc(-c3ncc4c(N5CCCC6(CCS(=N)(=O)C6)C5)nc(OC[C@@]56CCCN5C[C@H](F)C6)nc4c3F)c12` (stereo partly drawn) [Example 508, 7-(7-(8-ethyl-7-fluoro-3-hydroxynaphthalen-1-yl)-8-fluoro-2-(((2R,7aS)-2-fluorohexahydro-1H-pyrrolizin-7a-yl)methoxy)pyrido[4,3-d]pyrimidin-4-yl)-2-imino-2-thia-7-azaspiro[4.5]decane 2-oxide], the IC50 came to 5 nM in assay [1]; 12 nM in assay [2]; 14 nM in assay [3]; 1550 nM in assay [6]; 2190 nM in assay [7].
